# Data from US11242337B2, “Compounds useful for treating gastrointestinal tract disorders” (Ardelyx, Inc., priority 2017, dated 2022).
# Key:
# [1] = test system: human duodenum monolayer culture; experiment: Sustained inhibition of apical acid secretion in human organoid monolayer cell cultures (duodenum); assay type: cell-based; settings: Homo sapiens
# Description: (§1) Basal media (BM) consisted of advanced DMEM/F12 containing 10 mM HEPES Invitrogen, 15630-080), 1:100 Glutamax (Invitrogen, 35050-061), and 1:100 penicillin/streptomycin (Invitrogen, 15140-122). Supplemented basal media (SBM) contained 1:100 N2 (Invitrogen, 17502-048), 1:50 B27 (Invitrogen, 12587-010), 1 mM N-acetylcysteine (Sigma, A9165), and 10 nM [Leu15]-gastrin I (Sigma, G9145). Growth factors used included 50 ng per mL mouse EGF (Peprotech, 315-09), 100 ng per mL mouse noggin (Peprotech, 250-38), 500 ng per mL human R-spondin 1 (R&D, 4645-RS), 100 ng per mL mouse Wnt-3a (R&D, 1324-WN), 20 μM. Y-27632 (Tocris, 1254), 10 mM nicotinamide (Sigma, N0636), 500 nM A83-01 (Tocris, 2939), 10 μM SB202190 (Tocris, 1264). Transwells were 0.4 μm pore polyester membrane 24-well Transwell inserts (Corning). Cultures were incubated at 37° C. in 5% CO2.
# (§2) Each human ileum monolayer culture well was washed twice with fresh SBM on the apical side on day 6 before compound dosing. All compound stocks were 10 mM dissolved in DMSO. Each compound stock was individually mixed with fresh SBM to reach final compound concentration 1 μM and dosed only on the apical side of the monolayer (total volume 200 μl). DMSO at the equivalent concentration was used as the vehicle control. Duplicate wells were dosed for each compound. On day 8, apical media pH was measured by pH electrode, to determine the ability of example compounds to produce sustained inhibition of NHE3 activity in a human monolayer culture system by preventing proton secretion into the apical compartment.
# Human duodenum organoids were cultured in WENRNAS (Wnt, EGF, noggin, R-spondin1, Nicotinamide, A83-01, SB202190) and typically grown for 7-12 days before being used to plate monolayer cultures. On day 0, organoid cultures embedded in Matrigel were treated with TrypLE Express to break organoids into small pieces and/or single cells. The cells were resuspended to 0.5×10^6 cells/mL in SBM containing WENRAY (Wnt, EGF, noggin, R-spondin1, A83-01, Y-27632). Following this step, 200 μL of cell suspension was plated into the apical side of a 24-well Transwell (100,000 cells/well) and 600 μL of SBM with WENRAY was added to the basolateral side. Duodenum cells were differentiated with ENA (EGF, noggin, A83-01) on day 3. The color of apical compartment turns from pink or orange to yellow due to the increase in NHE3 expression after differentiation.
# [2] = test system: human ileum monolayer culture; experiment: Sustained inhibition of apical acid secretion in human organoid monolayer cell cultures (ileum); assay type: cell-based; settings: Homo sapiens, 48 h; 1 μM apical, dosed day 6, apical media pH day 8, vs DMSO
# Description: as §1
# Human ileum organoids were cultured in WENRNAS (Wnt, EGF, noggin, R-spondin1, Nicotinamide, A83-01, SB202190) and typically grown for 7-12 days before being used to plate monolayer cultures. On day 0, organoid cultures embedded in Matrigel were treated with TrypLE Express to break organoids into small pieces and/or single cells. The cells were resuspended to 0.5×10^6 cells/mL in SBM containing WENRAY (Wnt, EGF, noggin, R-spondin1, A83-01, Y-27632). Following this step, 200 μL of cell suspension was plated into the apical side of a 24-well Transwell (100,000 cells/well) and 600 μL of SBM with WENRAY was added to the basolateral side. Ileum cells were differentiated with ENRA (EGF, noggin, R-spondin 1, A83-01) on day 3. The color of apical compartment turns from pink or orange to yellow due to the increase in NHE3 expression after differentiation.
# as §2
Structure (SMILES),inhibition at 1 µM [1],inhibition at 1 µM [2]
"Cc1cc(S(=O)(=O)N[C@H]2CCN(CCOCCNC(=O)NCCCCNC(=O)NCCOCCN3CC[C@H](NS(=O)(=O)c4ccc(O[C@H]5c6cc(Cl)cc(Cl)c6C[C@@H]5N(C)C)c(C)c4)C3=O)C2=O)ccc1O[C@H]1c2cc(Cl)cc(Cl)c2C[C@@H]1N(C)C [Example 91, 1-(2-[2-[(3S)-3-[(4-[[(1S,2S)-4,6-Dichloro-2-(dimethylamino)-2,3-dihydro-1H-inden-1-yl]oxy]-3-methylbenzene)sulfonamido]-2-oxopyrrolidin-1-yl]ethoxy]ethyl)-3-(4-[[(2-[2-[(3S)-3-[(4-[[(1S,2S)-4,6-dichloro-2-(dimethylamino)-2,3-dihydro-1H-inden-1-yl]oxy]-3-methylbenzene)sulfonamido]-2-oxopyrrolidin-1-yl]ethoxy]ethyl)carbamoyl]amino]butyl)urea]",> 70%,50 to 70%
"CN(C)[C@H]1CCCN([C@H]2Cc3c(C#N)cc(Cl)cc3[C@@H]2Oc2ccc(S(=O)(=O)NCCOCCOCCNC(=O)NCCCCNC(=O)NCCOCCOCCNS(=O)(=O)c3ccc(O[C@H]4c5cc(Cl)cc(C#N)c5C[C@@H]4N4CCC[C@H](N(C)C)C4)cc3)cc2)C1 [Example 122, 4-([(1S,2S)-6-Chloro-4-cyano-2-[(S)-3-(dimethylamino)piperidin-1-yl]-2,3-dihydro-1H-inden-1-yl]oxy)-N-[26-([4-([(1S,2S)-6-chloro-4-cyano-2-[(S)-3-(dimethylamino)piperidin-1-yl]-2,3-dihydro-1H-inden-1-yl]oxy)phenyl]sulfonamido)-10,17-dioxo-3,6,21,24-tetraoxa-9,11,16,18-tetraazahexacosyl]benzenesulfonamide]",> 70%,> 70%
"N#Cc1cc(Cl)cc2c1C[C@H](N1CCNCC1)[C@H]2Oc1ccc(S(=O)(=O)N[C@H]2CCN(CCOCCNC(=O)NCCCCNC(=O)NCCOCCN3CC[C@H](NS(=O)(=O)c4ccc(O[C@H]5c6cc(Cl)cc(C#N)c6C[C@@H]5N5CCNCC5)cc4)C3)C2)cc1 [Example 107, 4-([(1S,2S)-6-Chloro-4-cyano-2-(piperazin-1-yl)-2,3-dihydro-1H-inden-1-yl]oxy)-N—[(S)-1-(20-[(S)-3-([4-([(1S,2S)-6-chloro-4-cyano-2-(piperazin-1-yl)-2,3-dihydro-1H-inden-1-yl]oxy)phenyl]sulfonamido)pyrrolidin-1-yl]-7,14-dioxo-3,18-dioxa-6,8,13,15-tetraazaicosyl)pyrrolidin-3-yl]benzenesulfonamide; tetra(trifluoroacetate)]",> 70%,> 70%
N#Cc1cc(Cl)cc2c1C[C@H](N1CCNCC1)[C@H]2Oc1ccc(S(=O)(=O)NC2CCN(C(=O)CCCNC(=O)NCCCCNC(=O)NCCCC(=O)N3CCC(NS(=O)(=O)c4ccc(O[C@H]5c6cc(Cl)cc(C#N)c6C[C@@H]5N5CCNCC5)cc4)CC3)CC2)cc1 [Example 115],> 70%,> 70%
"N#Cc1cc(Cl)cc2c1C[C@H](N1CCCNCC1)[C@H]2Oc1ccc(S(=O)(=O)N[C@H]2CCN(CCOCCNC(=O)NCCCCNC(=O)NCCOCCN3CC[C@H](NS(=O)(=O)c4ccc(O[C@H]5c6cc(Cl)cc(C#N)c6C[C@@H]5N5CCCNCC5)cc4)C3)C2)cc1 [Example 126, 4-([(1S,2S)-6-Chloro-4-cyano-2-(1,4-diazepan-1-yl)-2,3-dihydro-1H-inden-1-yl]oxy)-N—[(S)-1-(20-[(S)-3-([4-([(1S,2S)-6-chloro-4-cyano-2-(1,4-diazepan-1-yl)-2,3-dihydro-1H-inden-1-yl]oxy)phenyl]sulfonamido)pyrrolidin-1-yl]-7,14-dioxo-3,18-dioxa-6,8,13,15-tetraazaicosyl)pyrrolidin-3-yl]benzenesulfonamide]",< 50%,< 50%
"O=C(NCCCCNC(=O)NCCOCCN1CC[C@H](NS(=O)(=O)c2ccc(O[C@H]3c4cc(Cl)cc(Cl)c4C[C@@H]3N3CCNCC3)c(F)c2)C1)NCCOCCN1CC[C@H](NS(=O)(=O)c2ccc(O[C@H]3c4cc(Cl)cc(Cl)c4C[C@@H]3N3CCNCC3)c(F)c2)C1 [Example 106, 4-([(1S,2S)-4,6-Dichloro-2-(piperazin-1-yl)-2,3-dihydro-1H-inden-1-yl]oxy)-N—[(S)-1-(20-[(S)-3-([4-([(1S,2S)-4,6-dichloro-2-(piperazin-1-yl)-2,3-dihydro-1H-inden-1-yl]oxy)-3-fluorophenyl]sulfonamido)pyrrolidin-1-yl]-7,14-dioxo-3,18-dioxa-6,8,13,15-tetraazaicosyl)pyrrolidin-3-yl]-3-fluorobenzenesulfonamide; tetra(trifluoroacetate)]",> 70%,> 70%
"O=C(NCCCCNC(=O)NCCOCCN1CC[C@@H](NS(=O)(=O)c2ccc(O[C@H]3c4cc(Cl)cc(Cl)c4C[C@@H]3N3CCNCC3)c(F)c2)C1)NCCOCCN1CC[C@@H](NS(=O)(=O)c2ccc(O[C@H]3c4cc(Cl)cc(Cl)c4C[C@@H]3N3CCNCC3)c(F)c2)C1 [Example 105, 4-([(1S,2S)-4,6-Dichloro-2-(piperazin-1-yl)-2,3-dihydro-1H-inden-1-yl]oxy)-N—[(R)-1-(20-[(R)-3-([4-([(1S2S)-4,6-dichloro-2-(piperazin-1-yl)-2,3-dihydro-1H-inden-1-yl]oxy)-3-fluorophenyl]sulfonamido)pyrrolidin-1-yl]-7,14-dioxo-3,18-dioxa-6,8,13,15-tetraazaicosyl)pyrrolidin-3-yl]-3-fluorobenzenesulfonamide; tetra(trifluoroacetate)]",> 70%,> 70%
